Test results as given in US20190142840A1, “USE OF SIGMA RECEPTOR LIGANDS IN CANCER” (priority 2016, published 2019).
pIC50: −log10 of the molar value. Read-outs that look alike come from different tables or passages of the source.

Assays:
[1] = tested on: human breast adenocarcinoma MCF7 European cell line; assay: Proliferation assay (MTT or SRB), MCF7 European cell line; type: cell-based; conditions: for cytotoxic effect of association with paclitaxel: 10 μM sigma-1 receptor antagonist + 10 nM paclitaxel; for pIC50: Homo sapiens, read-out: IC50 (concentration of drug that inhibited 50% of cell proliferation)
Protocol: (§1) The human breast adenocarcinoma MCF7 European cell line, the human lung carcinoma A549 cell line and the B16-F10 murine melanoma cell line were obtained from the University of Granada Scientific Instrumentation Centre (Spain) and the American Type Culture Collection (ATCC). The cells were cultured in Dulbecco's modified Eagle's medium (DMEM) (Sigma, St. Louis, Mo., USA), supplemented with 10% heat-inactivated fetal bovine serum (FBS) (Lonza, Walkersville, Md., USA) and 1% of antibiotics mixture of penicillin (10,000 U/mL) and streptomycin (10 mg/mL) in an humidified 5% CO2 incubator at 37° C. of temperature. […] The percentage of viability was calculated by utilizing cells without any treatment as control. […] In the MTT protocol, 20 μL of MTT solution in cell culture medium (5 mg/mL) was added to each well. […] The optical density (OD) of converted dye, which is proportional to the number of viable cells, was measured at 570 nm using a Titertek multiscan colorimeter (Flow Laboratories, Irvine, USA). The percentage of surviving cells was calculated as the OD ratio of treated cells to control (untreated) cells (×100). In the SRB protocol, the cells were washed three times with PBS, and 300 μL of 10% trichloroacetic acid was used to fix the cells (20 minutes at 4° C.). Then, the cells were washed three times with distilled water and left to dry before 300 μL of SRB was added. Incubation under mechanical stirring was continued for 20 minutes, and the excess SRB was removed by the addition of a 1% acetic acid solution. Then, the cells were left to dry. […] Sigma-Aldrich) was used for dye resuspension. The optical density (OD) of SRB was measured at 492 nm (Titertek® Multiskan colorimeter; Flow Laboratories Ltd, Oldham, UK) and analyzed with Ascent software version 2.6 (ThermoLab systems, Helsinki, Finland). In all cases, the percentage of surviving cells was calculated as: [OD treated cells/OD control (untreated) cells)]×100. The IC50 values (concentration of drug that inhibited 50% of cell proliferation) were estimated from the inhibition curves.

[2] = tested on: human lung carcinoma A549 cell line; assay: Proliferation assay (MTT or SRB), A549 cell line; type: cell-based; conditions: read-out: IC50 (concentration of drug that inhibited 50% of cell proliferation)
Protocol: The cells were cultured in Dulbecco's modified Eagle's medium (DMEM) (Sigma, St. Louis, Mo., USA), supplemented with 10% heat-inactivated fetal bovine serum (FBS) (Lonza, Walkersville, Md., USA) and 1% of antibiotics mixture of penicillin (10,000 U/mL) and streptomycin (10 mg/mL) in an humidified 5% CO2 incubator at 37° C. of temperature. Cultured cells were detached with a trypsin-ethylenediamine tetraacetic acid (EDTA) solution (0.25%) and seeded into 24-well plates at a density of 6-15×10^3 cells per well, depending on the cell line.
After incubation for 24 hours under culture conditions, the cells were treated with either paclitaxel (0.1-50 nM) or Example 1 (5-100 μM). […] The percentage of viability was calculated by utilizing cells without any treatment as control.
After an incubation time of 96 hours with drugs, the cytotoxicity of the treatments toward the cell lines was evaluated in triplícate by the 3-(4,5-dimethylthiazol-2-yl)-2,5-diphenyl tetrazolium bromide (MTT) proliferation assay, as previously described (Clares et al., 2013), or with a sulforhodamine B (SRB) protocol, as previously described (Melguizo et al., 2015). […] The optical density (OD) of converted dye, which is proportional to the number of viable cells, was measured at 570 nm using a Titertek multiscan colorimeter (Flow Laboratories, Irvine, USA). […]

[3] = tested on: B16-F10 murine melanoma cell line; assay: Proliferation assay (MTT or SRB), B16-F10 cell line; type: cell-based; conditions: for cytotoxic effect of association with paclitaxel: 10 μM sigma-1 receptor antagonist + 10 nM paclitaxel; for pIC50: Mus musculus, read-out: IC50 (concentration of drug that inhibited 50% of cell proliferation)
Protocol: as §1

[4] = tested on: patients treated for colorectal cancer; assay: Phase 2 placebo-controlled clinical trial of Example 1 with oxaliplatin (FOLFOX4/mFOLFOX6); type: in vivo, human
Protocol: Thus, the clinical study titled “A proof-concept phase 2, randomized, placebo-controlled, double blind, multicenter clinical trial in two parallel groups to evaluate the efficacy of Example 1 for reducing the incidence and severity of oxaliplatin-induced peripheral neuropathy in patients treated for colorectal cancer” was performed.
The study period was 24 weeks of chemotherapy (one chemo cycle every 2 weeks=12 chemo cycles) plus 6 weeks (follow-up) and having as relevant safety objective to explore the incidence of adverse events by severity, of serious adverse effects, of adverse events leading to Example 1 discontinuation and of adverse events related to Example 1.
Patients received either: • oral daily Example 1, 400 mg/day, during the first 5 days of every chemotherapy cycle, starting the day before the cycle, up to a maximum of 12 cycles (Arm 1), • or oral daily placebo during the first 5 days of every chemotherapy cycle, starting the day before the cycle, up to a maximum of 12 cycles (Arm 2).
Patients were randomized to one of the two above mentioned Arms.
It was expected that chemotherapy cycles were repeated every 14 days for a maximum of 6 months (12 cycles) in the absence of disease progression or unacceptable toxicity.

sigma (σ-2) site = sigma (σ-2) site (Homo sapiens, UniProt Q5BJF2); conditions: background statement; cited from earlier work
sigma 1 (σ-1) site = sigma 1 (σ-1) site (Homo sapiens, UniProt Q99720); conditions: background statement; cited from earlier work
[5] = Example 1 400 mg/day oral with oxaliplatin, % apparently of the 27 discontinuations
[6] = Example 1 400 mg/day oral with oxaliplatin, % of n = 62 randomized
[7] = Example 1 400 mg/day oral with oxaliplatin, number of subjects
[8] = patients treated with Example 1 versus placebo

Chain of sigma (σ-2) site (Q5BJF2 whole entry): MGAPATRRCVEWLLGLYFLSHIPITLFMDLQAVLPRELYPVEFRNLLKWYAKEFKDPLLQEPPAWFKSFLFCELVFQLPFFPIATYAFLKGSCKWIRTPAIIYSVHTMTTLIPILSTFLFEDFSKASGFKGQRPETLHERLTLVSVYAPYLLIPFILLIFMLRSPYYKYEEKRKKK
Chain of sigma 1 (σ-1) site (Q99720 whole entry): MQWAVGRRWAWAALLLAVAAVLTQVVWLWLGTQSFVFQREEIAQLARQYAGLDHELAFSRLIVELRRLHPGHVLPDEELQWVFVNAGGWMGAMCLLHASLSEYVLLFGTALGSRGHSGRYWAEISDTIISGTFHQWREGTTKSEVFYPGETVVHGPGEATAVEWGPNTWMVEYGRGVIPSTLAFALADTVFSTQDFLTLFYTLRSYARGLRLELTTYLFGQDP

Cc1cc(OCCN2CCOCC2)nn1-c1ccc2ccccc2c1 [Example 1, 4-{2-[5-Methyl-1-(naphthalen-2-yl)-1H-pyrazol-3-yloxy]ethyl}morpholine]
cytotoxic effect of association with paclitaxel ([1]; MCF7 European cell culture): better results than Haloperidol and BD-1063
cytotoxic effect of association with paclitaxel ([1]; MCF7 European cell culture, listed as Example-1): greater than summative
pIC50 ([1]; MCF7, 96 h): 4.08
pIC50 ([2]; A549, 96 h): 4.00
cytotoxic effect of association with paclitaxel ([3]; B16-F10 cell culture): better results than Haloperidol and BD-1063
cytotoxic effect of association with paclitaxel ([3]; B16-F10 cell culture, listed as Example-1): greater than summative
pIC50 ([3]; B16-F10, 96 h): 4.57
Discontinuations: Physician decision (%) [4, 5]: 11.1%
Discontinuations: Progressive Disease (%) [4, 5]: 7.4%
Number of Completers (%) [4, 6]: 56.5%
Number of discontinuations (%) [4, 6]: 43.5%
Number of discontinuations ([4]; Example 1 400 mg/day oral with oxaliplatin, n = 62, number of subjects): 27
Discontinuations: Physician decision [4, 7]: 3
Discontinuations: Progressive Disease [4, 7]: 2
Number of Completers ([4]; Example 1 400 mg/day oral, first 5 days of each cycle, with oxaliplatin, n = 62 randomized, number of subjects): 35
more patients completed the 12 cycles of Oxaliplatin therapy ([4]; Example 1 added to chemotherapy versus placebo): 14.6%
Oxaliplatin dosing attained [4, 8]: higher Oxaliplatin dosing
patients discontinued because of cancer progression or physician decision [4, 8]: Less patients
tolerability of the chemotherapy [4, 8]: tolerated better the chemotherapy

CC(=O)O[C@H]1C(=O)[C@@]2(C)[C@H]([C@H](OC(=O)c3ccccc3)[C@]3(O)C[C@H](OC(=O)[C@H](O)[C@@H](NC(=O)c4ccccc4)c4ccccc4)C(C)=C1C3(C)C)[C@]1(OC(C)=O)CO[C@@H]1C[C@@H]2O [Paclitaxel, reference compound]
pIC50 ([1]; MCF7 European cells, 96 hours incubation): 8.07
cytotoxicity ([1]; paclitaxel alone at 10 nM, MCF7 European cell culture): around 35%
pIC50 ([2]; A549, A-549 cells, 96 hours incubation): 8.52
pIC50 ([3]; B16-F10 cells, 96 hours incubation): 7.82
cytotoxicity ([3]; paclitaxel alone at 10 nM, B16-F10 cell culture): around 35%

O=C(CCCN1CCC(O)(c2ccc(Cl)cc2)CC1)c1ccc(F)cc1 [haloperidol, reference compound]
cytotoxic effect of association with paclitaxel ([1]; MCF7 European cell culture): greater than summative
cytotoxic effect of association with paclitaxel ([3]; B16-F10 cell culture): greater than summative

SKF 10047
affinity for the sigma (σ-2) site (sigma (σ-2) site): micromolar affinity
affinity for the sigma 1 (σ-1) site (sigma 1 (σ-1) site): nanomolar affinity
